Patent publication US20160235752A1, “COMPOSITIONS, METHODS OF USE, AND METHODS OF TREATMENT” (THE UNIVERSITY OF NEW ORLEANS, priority 2013, published 2016)
In brackets after ≈: the same amount, converted by molar mass.

Tests used:
[1] = system: Candida glabrata (ATCC no. 48435); assay: MIC determination by broth microdilution (NCCLS), visual scoring; type: cell-based; conditions: for MIC80: Nakaseomyces glabratus, ATCC48435, read-out: MIC80 C. glabrata
[2] = system: Candida albicans (ATCC no. 10231); assay: as above; type: cell-based; conditions: for MIC80: Candida albicans, ATCC10231, read-out: MIC80 C. albicans
Summary of the method: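 NCCLS broth microdilution in RPMI 1640 with 10 mM HEPES, final compound 0.5–128 μg/mL, DMSO ≤1%. Inoculum from 0.5 McFarland stock diluted 1:50; incubated 35 °C for 48–72 h. MIC scored visually as lowest concentration giving ~80% growth reduction versus drug-free wells.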

[3] = Table 5, Schiff Bases of 5-acylpyrimidinetriones
[4] = Table 1, 5-Acyl-2,4,6-pyrimidinetriones, >80% growth inhibition, RPMI, 1% DMSO
[5] = Table 2, 5-Arylidene-2,4,6-pyrimidinetriones
[6] = Table 3, 5-Alkylated Pyrimidinetriones
[7] = Table 7, Phenylhydrazones of 5-Acylpyrimidinetriones
[8] = Table 8, N-Acylhydrazones of 5-Acylpyrimidinetriones

CN1C(=O)C(C=Nc2ccccc2)C(=O)N(C)C1=O [BA90]
MIC80 C. glabrata [1, 3]: — (none of the 5-acyl-2,4,6-pyrimidinetriones, 5-alkylated pyrimidinetriones or the 5,5-dialkylated pyrimidinetriones showed antifungal activity through 125 μg/mL)
MIC80 C. albicans [2, 3]: — (none of the 5-acyl-2,4,6-pyrimidinetriones, 5-alkylated pyrimidinetriones or the 5,5-dialkylated pyrimidinetriones showed antifungal activity through 125 μg/mL)

C/C(=N\Nc1ccc([N+](=O)[O-])cc1[N+](=O)[O-])C1C(=O)NC(=O)NC1=O [BA26, 5-{(1E)-1-[2-(2,4-Dinitrophenyl)hydrazinylidene]ethyl}pyrimidine-2,4,6-trione]
MIC80 [1]: > 125 µg/mL
MIC80 [2]: > 125 µg/mL

CC(=Nc1ccncc1)C1C(=O)NC(=O)NC1=O [BA88]
MIC80 C. glabrata [1, 3]: — (none of the 5-acyl-2,4,6-pyrimidinetriones, 5-alkylated pyrimidinetriones or the 5,5-dialkylated pyrimidinetriones showed antifungal activity through 125 μg/mL)
MIC80 C. albicans [2, 3]: — (none of the 5-acyl-2,4,6-pyrimidinetriones, 5-alkylated pyrimidinetriones or the 5,5-dialkylated pyrimidinetriones showed antifungal activity through 125 μg/mL)

CN1C(=O)C(C(=O)c2cccnc2)C(=O)N(C)C1=O [BA17]
MIC80 C. glabrata [1, 4]: — (none of the 5-acyl-2,4,6-pyrimidinetriones, 5-alkylated pyrimidinetriones or the 5,5-dialkylated pyrimidinetriones showed antifungal activity through 125 μg/mL)
MIC80 C. albicans [2, 4]: — (none of the 5-acyl-2,4,6-pyrimidinetriones, 5-alkylated pyrimidinetriones or the 5,5-dialkylated pyrimidinetriones showed antifungal activity through 125 μg/mL)

O=C1NC(=O)C(=Cc2ccccc2)C(=O)N1 [BA39]
MIC80 C. glabrata [1, 5]: — (none of the 5-acyl-2,4,6-pyrimidinetriones, 5-alkylated pyrimidinetriones or the 5,5-dialkylated pyrimidinetriones showed antifungal activity through 125 μg/mL)
MIC80 C. albicans [2, 5]: — (none of the 5-acyl-2,4,6-pyrimidinetriones, 5-alkylated pyrimidinetriones or the 5,5-dialkylated pyrimidinetriones showed antifungal activity through 125 μg/mL)

O=C1NC(=O)C(C=Nc2ccccc2)C(=O)N1 [BA89]
MIC80 C. glabrata [1, 3]: — (none of the 5-acyl-2,4,6-pyrimidinetriones, 5-alkylated pyrimidinetriones or the 5,5-dialkylated pyrimidinetriones showed antifungal activity through 125 μg/mL)
MIC80 C. albicans [2, 3]: — (none of the 5-acyl-2,4,6-pyrimidinetriones, 5-alkylated pyrimidinetriones or the 5,5-dialkylated pyrimidinetriones showed antifungal activity through 125 μg/mL)

CN1C(=O)C(C(=O)c2ccc([N+](=O)[O-])cc2)C(=O)N(C)C1=O [BA7]
MIC80 C. glabrata [1, 4]: — (none of the 5-acyl-2,4,6-pyrimidinetriones, 5-alkylated pyrimidinetriones or the 5,5-dialkylated pyrimidinetriones showed antifungal activity through 125 μg/mL)
MIC80 C. albicans [2, 4]: — (none of the 5-acyl-2,4,6-pyrimidinetriones, 5-alkylated pyrimidinetriones or the 5,5-dialkylated pyrimidinetriones showed antifungal activity through 125 μg/mL)

O=C1NC(=O)C(/C(=N/Nc2ccc([N+](=O)[O-])cc2[N+](=O)[O-])c2ccccc2)C(=O)N1 [BA30, 5-[(Z)-[2-(2,4-Dinitrophenyl)hydrazinylidene](phenyl)methyl]pyrimidine-2,4,6-trione]
MIC80 [1]: > 125 µg/mL
MIC80 [2]: > 125 µg/mL

CN1C(=O)C(CCCc2ccccc2)C(=O)N(C)C1=O [BA67]
MIC80 C. glabrata [1, 6]: — (none of the 5-acyl-2,4,6-pyrimidinetriones, 5-alkylated pyrimidinetriones or the 5,5-dialkylated pyrimidinetriones showed antifungal activity through 125 μg/mL)
MIC80 C. albicans [2, 6]: — (none of the 5-acyl-2,4,6-pyrimidinetriones, 5-alkylated pyrimidinetriones or the 5,5-dialkylated pyrimidinetriones showed antifungal activity through 125 μg/mL)

CC(=O)C1C(=O)NC(=O)N(c2ccccc2)C1=O (stereo not drawn) [BA21]
MIC80 C. glabrata [1, 4]: — (none of the 5-acyl-2,4,6-pyrimidinetriones, 5-alkylated pyrimidinetriones or the 5,5-dialkylated pyrimidinetriones showed antifungal activity through 125 μg/mL)
MIC80 C. albicans [2, 4]: — (none of the 5-acyl-2,4,6-pyrimidinetriones, 5-alkylated pyrimidinetriones or the 5,5-dialkylated pyrimidinetriones showed antifungal activity through 125 μg/mL)

O=C1NC(=O)C(C(=O)c2ccc(O)cc2)C(=O)N1 [BA10]
MIC80 C. glabrata [1, 4]: — (none of the 5-acyl-2,4,6-pyrimidinetriones, 5-alkylated pyrimidinetriones or the 5,5-dialkylated pyrimidinetriones showed antifungal activity through 125 μg/mL)
MIC80 C. albicans [2, 4]: — (none of the 5-acyl-2,4,6-pyrimidinetriones, 5-alkylated pyrimidinetriones or the 5,5-dialkylated pyrimidinetriones showed antifungal activity through 125 μg/mL)

CN1C(=O)C(=Cc2ccc(N(C)C)cc2)C(=O)N(C)C1=O [BA54]
MIC80 C. glabrata [1, 5]: — (none of the 5-acyl-2,4,6-pyrimidinetriones, 5-alkylated pyrimidinetriones or the 5,5-dialkylated pyrimidinetriones showed antifungal activity through 125 μg/mL)
MIC80 C. albicans [2, 5]: — (none of the 5-acyl-2,4,6-pyrimidinetriones, 5-alkylated pyrimidinetriones or the 5,5-dialkylated pyrimidinetriones showed antifungal activity through 125 μg/mL)

CC(=Nc1ccccc1)C1C(=O)NC(=O)NC1=O [BA92]
MIC80 C. glabrata [1, 3]: — (none of the 5-acyl-2,4,6-pyrimidinetriones, 5-alkylated pyrimidinetriones or the 5,5-dialkylated pyrimidinetriones showed antifungal activity through 125 μg/mL)
MIC80 C. albicans [2, 3]: — (none of the 5-acyl-2,4,6-pyrimidinetriones, 5-alkylated pyrimidinetriones or the 5,5-dialkylated pyrimidinetriones showed antifungal activity through 125 μg/mL)

O=C1NC(=O)C(C(=NNc2ccc(C(=O)O)cc2)C2C(=O)NC(=O)NC2=O)C(=O)N1 [BA38]
MIC80 C. glabrata [1, 7]: 125 µg/mL (≈ 300 µM)
MIC80 C. albicans [2, 7]: — (none of the 5-acyl-2,4,6-pyrimidinetriones, 5-alkylated pyrimidinetriones or the 5,5-dialkylated pyrimidinetriones showed antifungal activity through 125 μg/mL)

COC(=O)NN=CC1C(=O)NC(=O)NC1=O [BA77]
MIC80 C. glabrata [1, 8]: — (none of the 5-acyl-2,4,6-pyrimidinetriones, 5-alkylated pyrimidinetriones or the 5,5-dialkylated pyrimidinetriones showed antifungal activity through 125 μg/mL)
MIC80 C. albicans [2, 8]: — (none of the 5-acyl-2,4,6-pyrimidinetriones, 5-alkylated pyrimidinetriones or the 5,5-dialkylated pyrimidinetriones showed antifungal activity through 125 μg/mL)

CN1C(=O)C(=Cc2ccc(O)cc2)C(=O)N(C)C1=O [BA45]
MIC80 C. glabrata [1, 5]: — (none of the 5-acyl-2,4,6-pyrimidinetriones, 5-alkylated pyrimidinetriones or the 5,5-dialkylated pyrimidinetriones showed antifungal activity through 125 μg/mL)
MIC80 C. albicans [2, 5]: — (none of the 5-acyl-2,4,6-pyrimidinetriones, 5-alkylated pyrimidinetriones or the 5,5-dialkylated pyrimidinetriones showed antifungal activity through 125 μg/mL)

COc1cc(OC)c(C=C2C(=O)N(C)C(=O)N(C)C2=O)c(OC)c1 [BA52]
MIC80 C. glabrata [1, 5]: — (none of the 5-acyl-2,4,6-pyrimidinetriones, 5-alkylated pyrimidinetriones or the 5,5-dialkylated pyrimidinetriones showed antifungal activity through 125 μg/mL)
MIC80 C. albicans [2, 5]: — (none of the 5-acyl-2,4,6-pyrimidinetriones, 5-alkylated pyrimidinetriones or the 5,5-dialkylated pyrimidinetriones showed antifungal activity through 125 μg/mL)

C/C(=N\CCCCCC(=O)O)C1C(=O)NC(=O)NC1=O [BA29, 6-{(E)-[1-(2,4,6-trioxohexahydropyrimidin-5-yl)ethylidene]amino}hexanoic acid]
MIC80 [1]: > 125 µg/mL
MIC80 [2]: > 125 µg/mL
